Drawing on article PMC3725310 (Nature, 2013), this text covers Kd for one compound.

The assay deals with p7(5a) (Hepatitis C virus (isolate EUH1480), UniProt O39928, A759S/C749A/C774T/C791S/T748G). Kind of assay: biochemical. Format: binding.

pKd: −log10 of the molar value.

`CC(N)C12CC3CC(CC(C3)C1)C2` (stereo not shown) [rimantadine] gave a pKd of 4.00 to 4.30.
